Each compound was assayed against α4β7 integrin (Homo sapiens (Human), UniProt P13612+P26010) (assay: α4β7 Integrin Cell Capture Assay). Conditions: RPMI8866 cells captured on MadCAM-1 extracellular domain-coated plate.
Assay type: cell-based

Chain of α4β7 integrin (P13612 34-1032): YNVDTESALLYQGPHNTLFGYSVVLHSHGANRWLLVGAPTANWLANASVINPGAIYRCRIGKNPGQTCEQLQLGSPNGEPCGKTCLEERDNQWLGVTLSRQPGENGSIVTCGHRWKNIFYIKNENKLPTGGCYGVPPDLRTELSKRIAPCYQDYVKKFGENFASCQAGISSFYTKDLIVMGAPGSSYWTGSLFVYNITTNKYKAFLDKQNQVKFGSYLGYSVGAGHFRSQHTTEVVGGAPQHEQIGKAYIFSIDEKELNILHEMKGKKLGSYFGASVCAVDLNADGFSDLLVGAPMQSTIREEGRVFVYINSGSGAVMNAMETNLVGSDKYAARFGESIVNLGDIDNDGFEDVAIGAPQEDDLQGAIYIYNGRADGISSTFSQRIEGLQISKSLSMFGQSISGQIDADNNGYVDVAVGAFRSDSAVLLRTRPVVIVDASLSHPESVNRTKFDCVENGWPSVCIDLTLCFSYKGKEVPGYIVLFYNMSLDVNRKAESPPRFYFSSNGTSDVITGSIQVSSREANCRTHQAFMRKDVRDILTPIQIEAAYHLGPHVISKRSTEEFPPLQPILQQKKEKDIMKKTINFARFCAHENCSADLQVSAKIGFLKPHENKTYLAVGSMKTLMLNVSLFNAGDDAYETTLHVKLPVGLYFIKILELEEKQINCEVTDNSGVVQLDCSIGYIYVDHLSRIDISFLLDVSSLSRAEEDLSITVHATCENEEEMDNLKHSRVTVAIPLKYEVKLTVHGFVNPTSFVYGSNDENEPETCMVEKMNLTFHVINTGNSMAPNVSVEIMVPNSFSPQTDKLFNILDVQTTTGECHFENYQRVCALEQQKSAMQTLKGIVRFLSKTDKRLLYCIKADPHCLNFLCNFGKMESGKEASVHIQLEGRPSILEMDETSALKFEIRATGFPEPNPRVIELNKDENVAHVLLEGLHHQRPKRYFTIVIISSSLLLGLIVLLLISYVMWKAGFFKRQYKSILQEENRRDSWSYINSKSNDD
Chain of α4β7 integrin (P26010 20-798): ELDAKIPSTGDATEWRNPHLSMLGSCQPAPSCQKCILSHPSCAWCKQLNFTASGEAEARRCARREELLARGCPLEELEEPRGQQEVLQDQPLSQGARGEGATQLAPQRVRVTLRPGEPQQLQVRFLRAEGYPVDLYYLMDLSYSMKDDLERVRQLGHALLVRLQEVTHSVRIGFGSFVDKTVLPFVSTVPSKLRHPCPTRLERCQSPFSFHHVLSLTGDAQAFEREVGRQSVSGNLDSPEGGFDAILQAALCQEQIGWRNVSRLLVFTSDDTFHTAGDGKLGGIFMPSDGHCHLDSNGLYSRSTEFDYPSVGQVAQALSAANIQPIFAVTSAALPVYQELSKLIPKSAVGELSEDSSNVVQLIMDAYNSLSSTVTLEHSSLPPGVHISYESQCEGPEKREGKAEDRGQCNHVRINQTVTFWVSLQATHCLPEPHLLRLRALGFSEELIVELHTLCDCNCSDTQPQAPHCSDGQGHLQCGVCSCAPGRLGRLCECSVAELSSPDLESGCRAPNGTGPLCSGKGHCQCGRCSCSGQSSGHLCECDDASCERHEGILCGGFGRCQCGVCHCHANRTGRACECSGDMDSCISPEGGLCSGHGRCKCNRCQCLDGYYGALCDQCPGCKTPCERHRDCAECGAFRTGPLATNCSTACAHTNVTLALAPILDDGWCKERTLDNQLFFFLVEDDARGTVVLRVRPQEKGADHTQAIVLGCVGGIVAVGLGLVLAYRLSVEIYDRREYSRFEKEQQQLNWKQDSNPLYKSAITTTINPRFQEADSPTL

Compound | EC50 [nM]
Cn1c(=O)n(-c2ccc(C[C@H](NC(=O)c3c(F)cc(N4CCOC[C@@H]4C(F)(F)F)cc3F)C(=O)O)c3cc(F)cnc23)c(=O)c2cnccc21 [Example 430] | 0.469
Cc1cc(-c2nccn2CC(F)(F)F)cc(F)c1C(=O)N[C@@H](Cc1ccc(-n2c(=O)c3ccncc3n(C)c2=O)c2ncccc12)C(=O)O [Example 419] | 0.369
COc1cc2c(=O)n(-c3ccc(C[C@H](NC(=O)c4c(C)cc(N5CCOC[C@@H]5C(F)(F)F)cc4F)C(=O)O)c4cccnc34)c(=O)n(C)c2cn1 [Example 429] | 0.162
Cc1cc(N2CCOC[C@@H]2C(F)(F)F)cc(F)c1C(=O)N[C@@H](Cc1ccc(-c2nc(C)c(C)n(C)c2=O)c2ncc(F)cc12)C(=O)O [Example 452] | 0.232

Now from value to compound:

EC50 [nM] | Compound
1.48 | CC[C@@H](Nc1cc(F)c(C(=O)N[C@@H](Cc2ccc(-c3cc(OC)cn(C)c3=O)c3ncccc23)C(=O)O)c(F)c1)C(F)(F)F [Example 481]
0.331 | Cc1cc(C(F)(F)F)c(-c2ccc(C[C@H](NC(=O)c3c(F)cc(N4CCc5ccccc5[C@@H]4C(F)(F)F)cc3F)C(=O)O)c3cccnc23)c(=O)n1C [Example 472]

Same assay, conditions: Table 1; capture of α4β7 expressing RPM18866 cells on MadCAM-1 extracellular domain-coated plate

Compound | EC50 [nM]
O=C(N[C@@H](Cc1ccc(-c2ccsc2)c2ncccc12)C(=O)O)c1c(F)cc(NS(=O)(=O)c2ccc(-c3ccnc(F)c3)cc2)cc1F [Example 52, (S)-2-(2,6-difluoro-4-((4-(2-fluoropyridin-4-yl)phenyl)sulfonamido)benzamido)-3-(8-(thiophen-3-yl)quinolin-5-yl)propanoic acid] | 91.5
N#Cc1ccc(-c2ccc(C[C@H](NC(=O)c3c(Cl)cc(F)cc3Cl)C(=O)O)c3cccnc23)c(Cl)c1 [Example 22, (S)-3-(8-(2-chloro-4-cyanophenyl)quinolin-5-yl)-2-(2,6-dichloro-4-fluorobenzamido)propanoic acid] | 48.5
COc1cc(Cl)c(Cl)cc1-c1ccc(C[C@H](NC(=O)c2c(F)cccc2F)C(=O)O)c2cccnc12 [Example 5, (S)-3-(8-(4,5-dichloro-2-methoxyphenyl)quinolin-5-yl)-2-(2,6-difluorobenzamido)propanoic acid] | 17.4
(S)-3-(8-(2-chloro-4-cyanophenyl)quinolin-5-yl)-2-(2,6-difluoro-4-((phenoxycarbonyl)amino)benzamido)propanoic acid [Example 41] | 7.7
COc1c(F)cccc1-c1ccc(C[C@H](NC(=O)c2c(F)cc(NS(=O)(=O)c3ccc(-c4ccnc(F)c4)cc3)cc2F)C(=O)O)c2cccnc12 [Example 60, (S)-2-(2,6-difluoro-4-((4-(2-fluoropyridin-4-yl)phenyl)sulfonamido)benzamido)-3-(8-(3-fluoro-2-methoxyphenyl)quinolin-5-yl)propanoic acid] | 3
N#Cc1ccc(-c2c(F)cc(C[C@H](NC(=O)c3c(F)cccc3F)C(=O)O)c3cccnc23)c(Cl)c1 [Example 34, (2S)-3-(8-(2-chloro-4-cyanophenyl)-7-fluoroquinolin-5-yl)-2-(2,6-difluorobenzamido)propanoic acid] | 39.5
O=C(N[C@@H](Cc1ccc(-c2ncc3ccccc3c2C(F)(F)F)c2ncccc12)C(=O)O)c1c(F)cccc1F [Example 71, (S)-2-(2,6-difluorobenzamido)-3-(8-(4-(trifluoromethyl)isoquinolin-3-yl)quinolin-5-yl)propanoic acid] | 9.5
COc1cc2ccccc2cc1-c1ccc(C[C@H](NC(=O)c2c(F)cccc2F)C(=O)O)c2cccnc12 [Example 9, (S)-2-(2,6-difluorobenzamido)-3-(8-(3-methoxynaphthalen-2-yl)quinolin-5-yl)propanoic acid] | 25.1
Cc1cccc(F)c1C(=O)N[C@@H](Cc1ccc(-c2ccc(C#N)cc2Cl)c2ncccc12)C(=O)O [Example 1, (S)-3-(8-(2-chloro-4-cyanophenyl)quinolin-5-yl)-2-(2-fluoro-6-methylbenzamido)propanoic acid] | 21.2
CC[C@@H](Nc1cc(F)c(C(=O)N[C@@H](Cc2ccc(-c3c(C(F)(F)F)cc(C)n(C)c3=O)c3ncc(N(C)C)cc23)C(=O)O)c(F)c1)C(F)(F)F [Example 139, (S)-2-(2,6-difluoro-4-(((R)-1,1,1-trifluorobutan-2-yl)amino)benzamido)-3-(8-(1,6-dimethyl-2-oxo-4-(trifluoromethyl)-1,2-dihydropyridin-3-yl)-3-(dimethylamino)quinolin-5-yl)propanoic acid] | 11.7

Now from value to compound:

EC50 [nM] | Compound
0.3 | Cc1c(C(F)(F)F)cn(C)c(=O)c1-c1ccc(C[C@H](NC(=O)c2c(F)cc(N3CCOC[C@@H]3C(F)(F)F)cc2F)C(=O)O)c2cccnc12 [Example 106, (S)-2-(2,6-difluoro-4-((R)-3-(trifluoromethyl)morpholino)benzamido)-3-(8-(1,4-dimethyl-2-oxo-5-(trifluoromethyl)-1,2-dihydropyridin-3-yl)quinolin-5-yl)propanoic acid]
8.3 | N#Cc1ccc(-c2ccc(C[C@H](NC(=O)c3c(F)cc(N[C@H](c4ccccc4)C(F)(F)F)cc3F)C(=O)O)c3cccnc23)c(Cl)c1 [Example 86, (S)-3-(8-(2-chloro-4-cyanophenyl)quinolin-5-yl)-2-(2,6-difluoro-4-(((R)-2,2,2-trifluoro-1-phenylethyl)amino)benzamido)propanoic acid]
0.2 | CC[C@@H](Nc1cc(F)c(C(=O)N[C@@H](Cc2ccc(-c3c(C(F)(F)F)cc(C)n(C)c3=O)c3ncccc23)C(=O)O)c(F)c1)C(F)(F)F (single isomer, unassigned) [Example 107]
0.3 | Cc1cc(C(F)(F)F)c(-c2ccc(C[C@H](NC(=O)c3c(F)cc(N[C@H](C)C(F)(F)F)cc3F)C(=O)O)c3cccnc23)c(=O)n1C [Example 128, (S)-2-(2,6-difluoro-4-(((R)-1,1,1-trifluoropropan-2-yl)amino)benzamido)-3-(8-(1,6-dimethyl-2-oxo-4-(trifluoromethyl)-1,2-dihydropyridin-3-yl)quinolin-5-yl)propanoic acid]
1.7 | CC[C@@H](Nc1cc(F)c(C(=O)N[C@@H](Cc2ccc(-c3c(OC)cc(CN4CCOCC4)cc3OC)c3ncccc23)C(=O)O)c(F)c1)C(F)(F)F [Example 121, (S)-2-(2,6-difluoro-4-(((R)-1,1,1-trifluorobutan-2-yl)amino)benzamido)-3-(8-(2,6-dimethoxy-4-(morpholinomethyl)phenyl)quinolin-5-yl)propanoic acid]
8.2 | N#Cc1ccc(-c2ccc(C[C@H](NC(=O)c3c(F)cc(NC(C(F)(F)F)C(F)(F)F)cc3F)C(=O)O)c3cccnc23)c(Cl)c1 [Example 88, (S)-3-(8-(2-chloro-4-cyanophenyl)quinolin-5-yl)-2-(2,6-difluoro-4-((1,1,1,3,3,3-hexafluoropropan-2-yl)amino)benzamido)propanoic acid]

Same assay, conditions: Table 2; capture of α4β7 expressing RPM18866 cells on MadCAM-1 extracellular domain-coated plate

Compound | EC50 [nM]
N#Cc1ccc(-c2ccc(C[C@H](NC(=O)c3c(Cl)cc4[nH]c(C5CC5)cc4c3Cl)C(=O)O)c3cccnc23)c(Cl)c1 [Example 225] | 53.7
CC1(O)CCN(c2cc(F)c(C(=O)N[C@@H](Cc3ccc(-c4ccc(C#N)cc4Cl)c4ncccc34)C(=O)O)c(F)c2)CC1 [Example 216] | 31
O=C(N[C@@H](Cc1ccc(-c2ccc3c4c(ccnc24)CCO3)c2ncccc12)C(=O)O)c1c(F)cccc1F [Example 306] | 11.2
Cc1[nH]c2cc(Cl)c(C(=O)N[C@@H](Cc3ccc(-c4ccc(C#N)cc4Cl)c4ncccc34)C(=O)O)c(Cl)c2c1C [Example 174] | 97.8
O=C(N[C@@H](Cc1ccc(-c2ncc3c(n2)CCC3)c2ncccc12)C(=O)O)c1c(F)cc(N2CCOC[C@@H]2C(F)(F)F)cc1F [Example 299] | 8.2
N#Cc1ccc(-c2ccc(C[C@H](NC(=O)c3c(F)cc(NC(c4ccccc4)C(F)F)cc3F)C(=O)O)c3cccnc23)c(Cl)c1 (some centres unmarked) [Example 326] | 19.1

Results, then the compound that gave them:

EC50 [nM] | Compound
1.9 | CC[C@@H](Nc1cc(F)c(C(=O)N[C@@H](Cc2ccc(-c3nc(C)cn(C)c3=O)c3ncccc23)C(=O)O)c(F)c1)C(F)(F)F [Example 209]
0.9 | Cc1cc(C(F)(F)F)c(-c2ccc(C[C@H](NC(=O)c3c(F)cc(N4CCOC[C@@H]4C)cc3F)C(=O)O)c3cccnc23)c(=O)n1C [Example 180]
0.9 | CCc1nc(-c2ccc(C[C@H](NC(=O)c3c(F)cc(N[C@H](CC)C(F)(F)F)cc3F)C(=O)O)c3cccnc23)c(=O)n(C)c1CC [Example 176]
1.4 | Nc1ccc(C(F)(F)F)c(-c2ccc(C[C@H](NC(=O)c3c(F)cc(N4CCOC[C@@H]4C(F)(F)F)cc3F)C(=O)O)c3cccnc23)n1 [Example 194]
0.2 | Cc1nc(-c2ccc(C[C@H](NC(=O)c3c(F)cc(N4CCOC[C@@H]4C(F)(F)F)cc3F)C(=O)O)c3cccnc23)c(=O)n(C)c1C [Example 151]
2.9 | Cc1cc(C(F)(F)F)c(-c2ccc(C[C@H](NC(=O)c3c(F)cc(N4CC[C@@H]4C(F)(F)F)cc3F)C(=O)O)c3cccnc23)c(=O)n1C [Example 244]
4.5 | Cc1ccnc(-c2ccc(C[C@H](NC(=O)c3c(F)cc(N4CCOC[C@@H]4C(F)(F)F)cc3F)C(=O)O)c3cccnc23)c1C [Example 271]
13.3 | CC[C@@H](Nc1cc(F)c(C(=O)N[C@@H](Cc2ccc(-c3ncc(C)cc3N(C)C)c3ncccc23)C(=O)O)c(F)c1)C(F)(F)F [Example 313]
0.8 | CC[C@@H](Nc1cc(F)c(C(=O)N[C@@H](Cc2ccc(-c3c(C)cc(C)n(C)c3=O)c3ncccc23)C(=O)O)c(F)c1)C(F)(F)F [Example 345]
1.4 | Cn1c(=O)c(-c2ccc(C[C@H](NC(=O)c3c(F)cc(N4CCOC[C@H]4C(F)(F)F)cc3F)C(=O)O)c3cccnc23)cc2cnccc21 [Example 192]
62.3 | C[C@H](NC(=O)c1cc(F)c(C(=O)N[C@@H](Cc2ccc(-c3ccc(C#N)cc3Cl)c3ncccc23)C(=O)O)c(F)c1)C(F)(F)F [Example 195]
24.2 | N#Cc1ccc(-c2ccc(C[C@H](NC(=O)c3c(F)cc(N[C@H](c4cccc(F)c4)C(F)(F)F)cc3F)C(=O)O)c3cccnc23)c(Cl)c1 [Example 334]
0.2 | Cn1c(=O)c(-c2ccc(C[C@H](NC(=O)c3c(F)cc(NS(=O)(=O)C(F)F)cc3F)C(=O)O)c3cccnc23)cc2ccccc21 [Example 153]

From patent US11116760B2 (Gilead Sciences, Inc., priority 2018, dated 2021)
